Tested on: T cells isolated from mouse spleens
Assay: T cell proliferation inhibition (CFSE flow cytometry, anti-CD3/anti-CD28 stimulation)
Assay type: cell-based, C57BL/6 mice
Conditions: three days
Protocol: To verify the T cell proliferation inhibitory effect of the compounds according to the present invention, the following experiment was performed based on flow cytometry analysis using carboxyfluorescein diacetate succinimidyl ester (CFSE), a fluorescent dye that binds to intracellular molecules via covalent bonds.
Spleens were extracted from 7-week-old C57BL/6 mice, ground, and then separated into single cells using a strainer (40 μm pore size, SPL). Red blood cells were removed using ACK (Ammonium-Chloride-Potassium) lysis buffer to isolate white blood cells.
Finally, using a MACS Magnetic Stand and LS column, T cells were isolated from the spleen.
The T cells isolated from the spleen were resuspended in 1 mL of free medium (RPMI-1640+200 U/mL penicillin+200 μg/mL streptomycin), and 0.3 μL of CFSE (10 mM) was added. The mixture was incubated at 37° C. for 5 minutes.
Free medium (10 mL) was added to stop the reaction, and the cells were centrifuged to obtain the cell pellet.
RPMI 1640 medium containing 10% FBS, 100 U/mL penicillin, 100 μg/mL streptomycin, and resuspended the cells. The cells were then seeded into a 96-well plate at a density of 2× 10^5 cells per well and activated with CD3 and CD28 antibodies (0.5 μg/mL each) to activate T cells.
The compound diluted in DMSO was added at concentrations of 10 nM, 100 nM, 1 μM, 10 μM, 30 μM, and 50 μM, with three wells per concentration, and cultured at 37° C. and 5% CO2 for three days. The cells were then analyzed using a FACS Canto instrument.
The proliferation inhibition rate (%) was calculated using the following formula: […]

SMILES: CN(CCCCCCCCCCCCNC(=O)c1cccnc1N)C1CCCCC1 [Compound 34, 2-Amino-N-(12-(cyclohexyl(methyl)amino)dodecyl) nicotinamide]
- Proliferation inhibition rate (%) (concentration 100 nM): 100.00%
- Proliferation inhibition rate (%) (concentration 1 μM): 100.00%
- Proliferation inhibition rate (%) (concentration 10 μM): 100.00%
- Proliferation inhibition rate (%) (concentration 30 μM): 100.00%
- Proliferation inhibition rate (%) (concentration 50 μM): 100.00%

SMILES: CC1CN(CCCCCCCCCCCCNC(=O)c2cccnc2N)C(C)CN1.Cl (stereo not shown) [Compound 36, 2-Amino-N-(12-(2,5-dimethylpiperazin-1-yl)dodecyl) nicotinamide hydrochloride]
- Proliferation inhibition rate (%) (concentration 100 nM): 100.00%
- Proliferation inhibition rate (%) (concentration 1 μM): 100.00%
- Proliferation inhibition rate (%) (concentration 10 μM): 100.00%
- Proliferation inhibition rate (%) (concentration 30 μM): 100.00%
- Proliferation inhibition rate (%) (concentration 50 μM): 100.00%

SMILES: Nc1ncccc1C(=O)NCCCCCCCCCCCCNC1CCOC1 (stereo not shown) [Compound 128, 2-amino-N-(12-((tetrahydrofuran-3-yl)amino)dodecyl) nicotinamide]
- Proliferation inhibition rate (%) (concentration 100 nM): 100.00%
- Proliferation inhibition rate (%) (concentration 1 μM): 100.00%
- Proliferation inhibition rate (%) (concentration 10 μM): 100.00%
- Proliferation inhibition rate (%) (concentration 30 μM): 100.00%
- Proliferation inhibition rate (%) (concentration 50 μM): 100.00%

SMILES: COc1ccc(C(=O)NCCCCCCCCCCCCN2CCN(C)CC2)nc1 [Compound 204, 5-methoxy-N-(12-(4-methylpiperazin-1-yl)dodecyl) picolinamide]
- Proliferation inhibition rate (%) (concentration 10 nM): −2.60%
- Proliferation inhibition rate (%) (concentration 100 nM): −0.14%
- Proliferation inhibition rate (%) (concentration 1 μM): 12.30%
- Proliferation inhibition rate (%) (concentration 10 μM): 95.01%
- Proliferation inhibition rate (%) (concentration 30 μM): 100.00%
- Proliferation inhibition rate (%) (concentration 50 μM): 100.00%

SMILES: Cc1ccc(C(=O)NCCCCCCCCCCCCN2CCN(C)CC2)nc1 [Compound 202, 5-Methyl-N-(12-(4-methylpiperazin-1-yl)dodecyl) picolinamide]
- Proliferation inhibition rate (%) (concentration 10 nM): 4.05%
- Proliferation inhibition rate (%) (concentration 100 nM): 13.17%
- Proliferation inhibition rate (%) (concentration 1 μM): 18.96%
- Proliferation inhibition rate (%) (concentration 10 μM): 100.00%
- Proliferation inhibition rate (%) (concentration 30 μM): 100.00%
- Proliferation inhibition rate (%) (concentration 50 μM): 100.00%

SMILES: CN1CCN(CCCCCCCCCCCCNC(=O)c2c(Cl)cncc2Cl)CC1 [Compound 201, 3,5-Dichloro-N-(12-(4-methylpiperazin-1-yl)dodecyl) isonicotinamide]
- Proliferation inhibition rate (%) (concentration 10 nM): 7.24%
- Proliferation inhibition rate (%) (concentration 100 nM): 6.66%
- Proliferation inhibition rate (%) (concentration 1 μM): 8.54%
- Proliferation inhibition rate (%) (concentration 10 μM): 78.44%
- Proliferation inhibition rate (%) (concentration 30 μM): 100.00%
- Proliferation inhibition rate (%) (concentration 50 μM): 100.00%

SMILES: CC(C)(C)OC(=O)N1CCN(CCCCCCCCCCCCNC(=O)c2cccnc2N)CC1 [Compound 111, tert-butyl-4-(12-(2-aminonicotinamido)dodecyl) piperazine-1-carboxylate]
- Proliferation inhibition rate (%) (concentration 10 nM): 0.00%
- Proliferation inhibition rate (%) (concentration 100 nM): 100.00%
- Proliferation inhibition rate (%) (concentration 1 μM): 100.00%
- Proliferation inhibition rate (%) (concentration 10 μM): 100.00%
- Proliferation inhibition rate (%) (concentration 30 μM): 100.00%
- Proliferation inhibition rate (%) (concentration 50 μM): 100.00%

SMILES: CN1CCN(CCCCCCCCCCCCNC(=O)c2ccccc2C(=O)NC2CCCCC2)CC1 [Compound 191, N1-Cyclohexyl-N2-(12-(4-methylpiperazin-1-yl)dodecyl) phthalamide]
- Proliferation inhibition rate (%) (concentration 10 nM): 0.00%
- Proliferation inhibition rate (%) (concentration 100 nM): 0.00%
- Proliferation inhibition rate (%) (concentration 1 μM): 7.39%
- Proliferation inhibition rate (%) (concentration 10 μM): 93.26%
- Proliferation inhibition rate (%) (concentration 30 μM): 100.00%
- Proliferation inhibition rate (%) (concentration 50 μM): 100.00%

SMILES: CC(C)(C)OC(=O)N[C@@H]1CCCN(CCCCCCCCCCCCNC(=O)c2cccnc2N)C1 [Compound 117, tert-butyl-(R)-(1-(12-(2-aminonicotinamido)dodecyl)piperidin-3-yl) carbamate]
- Proliferation inhibition rate (%) (concentration 100 nM): 100.00%
- Proliferation inhibition rate (%) (concentration 1 μM): 100.00%
- Proliferation inhibition rate (%) (concentration 10 μM): 100.00%
- Proliferation inhibition rate (%) (concentration 30 μM): 100.00%
- Proliferation inhibition rate (%) (concentration 50 μM): 100.00%

SMILES: CC(C)(C)OC(=O)NC1CCN(CCCCCCCCCCCCNC(=O)c2cccnc2N)CC1 [Compound 101, tert-Butyl (1-(12-(2-aminonicotinamido)dodecyl)piperidin-4-yl) carbamate]
- Proliferation inhibition rate (%) (concentration 10 nM): −0.15%
- Proliferation inhibition rate (%) (concentration 100 nM): 100.00%
- Proliferation inhibition rate (%) (concentration 1 μM): 100.00%
- Proliferation inhibition rate (%) (concentration 10 μM): 100.00%
- Proliferation inhibition rate (%) (concentration 30 μM): 100.00%
- Proliferation inhibition rate (%) (concentration 50 μM): 100.00%

SMILES: CN1CCN(CCCCCCCCCCCCNC(=O)c2ccncc2N)CC1 [Compound 209, 3-Amino-N-(12-(4-methylpiperazin-1-yl)dodecyl) isonicotinamide]
- Proliferation inhibition rate (%) (concentration 10 nM): −1.45%
- Proliferation inhibition rate (%) (concentration 100 nM): 1.59%
- Proliferation inhibition rate (%) (concentration 1 μM): 18.81%
- Proliferation inhibition rate (%) (concentration 10 μM): 84.52%
- Proliferation inhibition rate (%) (concentration 30 μM): 100.00%
- Proliferation inhibition rate (%) (concentration 50 μM): 100.00%

SMILES: COC1CCN(CCCCCCCCCCCCNC(=O)c2cccnc2N)CC1 [Compound 94, 2-amino-N-(12-(4-methoxypiperidin-1-yl)dodecyl) nicotinamide]
- Proliferation inhibition rate (%) (concentration 100 nM): 100.00%
- Proliferation inhibition rate (%) (concentration 1 μM): 100.00%
- Proliferation inhibition rate (%) (concentration 10 μM): 100.00%
- Proliferation inhibition rate (%) (concentration 30 μM): 100.00%
- Proliferation inhibition rate (%) (concentration 50 μM): 100.00%

SMILES: CN1CCN(CCCCCCCCCCCCNC(=O)c2ccncc2Cl)CC1 [Compound 199, 3-Chloro-N-(12-(4-methylpiperazin-1-yl)dodecyl) isonicotinamide]
- Proliferation inhibition rate (%) (concentration 10 nM): 0.00%
- Proliferation inhibition rate (%) (concentration 100 nM): 0.00%
- Proliferation inhibition rate (%) (concentration 1 μM): 0.00%
- Proliferation inhibition rate (%) (concentration 10 μM): 40.00%
- Proliferation inhibition rate (%) (concentration 30 μM): 100.00%
- Proliferation inhibition rate (%) (concentration 50 μM): 100.00%

SMILES: Nc1ncccc1C(=O)NCCCCCCCCCCCCN1CCOC1=O [Compound 127, 2-amino-N-(12-(2-oxooxazolidin-3-yl)dodecyl) nicotinamide]
- Proliferation inhibition rate (%) (concentration 10 μM): 100.00%
- Proliferation inhibition rate (%) (concentration 30 μM): 100.00%
- Proliferation inhibition rate (%) (concentration 50 μM): 100.00%

SMILES: CC(C)N1CCN(CCCCCCCCCCCCNC(=O)c2cccnc2N)CC1 [Compound 104, 2-Amino-N-(12-(4-isopropylpiperazin-1-yl)dodecyl) nicotinamide]
- Proliferation inhibition rate (%) (concentration 10 nM): 100.00%
- Proliferation inhibition rate (%) (concentration 100 nM): 100.00%
- Proliferation inhibition rate (%) (concentration 1 μM): 100.00%
- Proliferation inhibition rate (%) (concentration 10 μM): 100.00%
- Proliferation inhibition rate (%) (concentration 30 μM): 100.00%
- Proliferation inhibition rate (%) (concentration 50 μM): 100.00%

SMILES: CN1CCN(CCCCCCCCCCCCNC(=O)c2ccc(F)cn2)CC1 [Compound 203, 5-Fluoro-N-(12-(4-methylpiperazin-1-yl)dodecyl) picolinamide]
- Proliferation inhibition rate (%) (concentration 10 nM): −4.49%
- Proliferation inhibition rate (%) (concentration 100 nM): 1.16%
- Proliferation inhibition rate (%) (concentration 1 μM): 6.80%
- Proliferation inhibition rate (%) (concentration 10 μM): 100.00%
- Proliferation inhibition rate (%) (concentration 30 μM): 100.00%
- Proliferation inhibition rate (%) (concentration 50 μM): 100.00%

SMILES: CN(CCCCCCCCCCCCNC(=O)c1cccnc1N)C(C)(C)C [Compound 53, 2-Amino-N-(12-(tert-butyl(methyl)amino)dodecyl) nicotinamide]
- Proliferation inhibition rate (%) (concentration 100 nM): 100.00%
- Proliferation inhibition rate (%) (concentration 1 μM): 100.00%
- Proliferation inhibition rate (%) (concentration 10 μM): 100.00%
- Proliferation inhibition rate (%) (concentration 30 μM): 100.00%
- Proliferation inhibition rate (%) (concentration 50 μM): 100.00%

SMILES: Nc1ncccc1C(=O)NCCCCCCCCCCCCN1CCc2ccccc2C1 [Compound 17, 2-Amino-N-(12-(3,4-dihydroisoquinolin-2 (1H)-yl)dodecyl) nicotinamide]
- Proliferation inhibition rate (%) (concentration 10 nM, listed as PBK-2024-004, 0.01 µM): 0.00%
- Proliferation inhibition rate (%) (concentration 100 nM, listed as PBK-2024-004, 0.1 µM): −14.00%
- Proliferation inhibition rate (%) (concentration 1 μM, listed as PBK-2024-004, 1 µM): 100.00%
- Proliferation inhibition rate (%) (concentration 10 μM, listed as PBK-2024-004, 10 µM): 100.00%

SMILES: Nc1ncccc1C(=O)NCCCN1CCOCC1 [Compound 78, 2-amino-N-(3-morpholin-4-yl-propyl) nicotinamide]
- Proliferation inhibition rate (%) (concentration 10 nM): −7.14%
- Proliferation inhibition rate (%) (concentration 100 nM): −4.19%
- Proliferation inhibition rate (%) (concentration 1 μM): −3.73%
- Proliferation inhibition rate (%) (concentration 10 μM): 0.68%
- Proliferation inhibition rate (%) (concentration 30 μM): 4.51%
- Proliferation inhibition rate (%) (concentration 50 μM): 8.76%

SMILES: COC(=O)C1CCN(CCCCCCCCCCCCNC(=O)c2cccnc2N)C1 (stereo not shown) [Compound 116, Methyl-1-(12-(2-aminonicotinamido)dodecyl)pyrrolidine-3-carboxylate]
- inhibition at 0.01 µM (Mus musculus, T-cell, 72 h, concentration 10 nM, read-out: Proliferation inhibition rate (%)): -1.9%
- inhibition at 0.1 µM (Mus musculus, T-cell, 72 h, concentration 100 nM, read-out: Proliferation inhibition rate (%)): 26.2%
- inhibition at 1 µM (Mus musculus, T-cell, 72 h, concentration 1 μM, read-out: Proliferation inhibition rate (%)): 100%
- inhibition at 10 µM (Mus musculus, T-cell, 72 h, concentration 10 μM, read-out: Proliferation inhibition rate (%)): 100%
- inhibition at 30 µM (Mus musculus, T-cell, 72 h, concentration 30 μM, read-out: Proliferation inhibition rate (%)): 100%
- inhibition at 50 µM (Mus musculus, T-cell, 72 h, concentration 50 μM, read-out: Proliferation inhibition rate (%)): 100%
